In patent publication US10526634B2, “Cell line for screening influenza virus polymerase assembly inhibitor and construction method thereof” (Suzhou Institute of Systems Medicine, priority 2015, dated 2020):

Test system: PA/PB1 HEK293T (Teton) cell line
Assay: Dox-controlled inducible PA/PB1 expression, luciferase activity and Western blotting
Format: cell-based
Details: Dox 300 ng/mL, 16 h, PA/PB1 HEK293T (Teton) cells
Procedure: To detect the influence of Doxycycline (Dox) (purchased from Sigma) on controlled inducible PA/PB1 expression, 100,000 PA/PB1 HEK293T (Teton) cells and 300 μL DMEM complete medium were plated in each well of a 48 well plate. After 24 h, Dox was added at concentrations of 0, 10, 30, 100, 300 ng/mL respectively. After 16 h, culture medium in supernatant was removed, and lysis was performed on ice for 10 min using 80 μL renilla luciferase lysate (purchased from Promega, E2820), lysate was mixed by pipetting, 50 μL cell lysate was transferred into a plate for luciferase detection (purchased from PE), 20 μL renilla luciferase substrate (purchased from Promega, E2820) was added into each well, and luciferase activity was detected by a microplate reader (purchased from Bio-Tek, SynergyH1). The remaining 30 μL lysate was used for immune blotting (Western Blotting), the primary antibody used was Anti-Gluc (purchased from NEB), the secondary antibody used was HRP-conjugated Donkey Anti-Rabbit (purchased from Jackson), and expression of PA/PB1 with Gluc fusion tag could be detected by a scanner (purchased from Bio-rad).
When Dox was not added into the PA/PB1 HEK293T (Teton) cell line, luciferase activity of PA/PB1 interaction was the background. […] When Dox was added at a concentration of 300 ng/mL, the difference between its signal value and the background signal value was up to 200 times.

## C[C@H]1c2cccc(O)c2C(=O)C2=C(O)[C@]3(O)C(=O)C(C(N)=O)=C(O)[C@@H](N(C)C)[C@@H]3[C@@H](O)[C@@H]21 [Dox, Doxycycline]
  difference between signal value and background signal value (luciferase activity of PA/PB1 interaction): up to 200 times
